Test results: patent US20240327418A1, “MULTI-TARGET INHIBITOR TARGETING HDAC AND NAD SYNTHESIS AND USE OF MULTI-TARGET INHIBITOR” (OCEAN UNIVERSITY OF CHINA, priority 2021, published 2024)
Like-named read-outs stand apart in the source and are kept apart here.

What was measured:
HDAC1 = HDAC1 (Homo sapiens (Human), UniProt Q13547); assay: Inhibitory activity on HDAC1 (fluorescence enzyme assay); settings: read-out: IC50 HDAC1; mean of three independent experiments
[1] = test system: leukemia cell line KASUMI-1; assay: GI50 and LC50 by NCI method, KASUMI-1; assay type: cell-based; settings: Homo sapiens, 48 hours, Cell Titer-Blue
Procedure: (§1) The median growth inhibitory concentration (GI50) and median lethal concentration (LC50) were determined by NCI method. Leukemia cell strains MV4-11, HL60, PL21, KASUMI-1, MONO-MAC-1 and NB-4 were cultured in an Iscove's Modified Dulbecco Medium (IMDM) containing 10% fetal bovine serum, were inoculated into a 96-well cell culture plate at a density of 10,000 cells/100 μL and cultured overnight. 6 wells were selected as Tz wells, 0.125 mg/mL Cell Titer-Blue dye was added, and the cells were cultured for 4 hours and then the fluorescence intensity at […] (excitation wavelength/emission wavelength) was read. Compounds of different concentrations were added to the remaining wells, and a 100% control group was set. After 48 hours of cultivation, 0.125 mg/mL Cell Titer-Blue dye was added and the fluorescence intensity at […] was read after 4 hours. The fluorescence intensity of the dosing group was represented by Ti, the fluorescence intensity of the 100% control group was represented by C, and the fluorescence intensity before dosing was represented by Tz.
(§2) If Ti≥Tz, the formula [(Ti−Tz)/(C−Tz)]×100 was used.
(§3) If Ti<Tz, the formula [(Ti−Tz)/Tz]×100 was used.
(§4) The GI50 and LC50 values of some compounds on leukemia cell strains MV4-11, HL60, PL21, KASUMI-1, MONO-MAC-1 and NB-4 are shown in FIG. 1, Table 3, FIG. 2, and Table 4.

[2] = test system: acute myelogenous leukemia cells HL60; assay: GI50 and LC50 by NCI method, HL60; assay type: cell-based; settings: for CC50 / GI50: Homo sapiens, HL-60, 48 hours, Cell Titer-Blue
Procedure: as §1, §2, §3, §4

HDAC3 = HDAC3 (Homo sapiens (Human), UniProt O15379); assay: Inhibitory activity on HDAC3 (fluorescence enzyme assay); settings: read-out: IC50 HDAC3; mean of three independent experiments
Chain of HDAC3 (O15379 whole entry, species assumed): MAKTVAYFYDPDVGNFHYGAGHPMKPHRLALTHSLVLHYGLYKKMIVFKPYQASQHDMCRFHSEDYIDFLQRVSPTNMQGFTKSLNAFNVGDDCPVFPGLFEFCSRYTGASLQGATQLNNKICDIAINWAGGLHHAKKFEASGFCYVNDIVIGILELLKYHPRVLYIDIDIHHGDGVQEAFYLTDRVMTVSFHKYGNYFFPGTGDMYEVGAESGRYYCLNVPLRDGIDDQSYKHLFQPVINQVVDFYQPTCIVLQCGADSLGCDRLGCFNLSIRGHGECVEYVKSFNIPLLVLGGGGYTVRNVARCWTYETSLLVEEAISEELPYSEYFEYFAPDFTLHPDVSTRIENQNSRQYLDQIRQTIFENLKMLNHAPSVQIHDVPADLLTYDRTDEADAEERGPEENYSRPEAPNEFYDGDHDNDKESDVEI
Chain of HDAC3 (Q9Y618 395-489 partner, species assumed): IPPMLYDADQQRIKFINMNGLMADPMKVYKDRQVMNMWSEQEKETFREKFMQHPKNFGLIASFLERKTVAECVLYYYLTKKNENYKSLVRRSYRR

leukemia cell line PL21 = assay: GI50 and LC50 by NCI method, PL21; assay type: cell-based; settings: PL-21; 48 hours, Cell Titer-Blue
Procedure: as §1, §2, §3, §4

HCT116 tumor = assay: In vivo anti-colon cancer activity, HCT116 tumor bearing model; design: species or system nude mice
[3] = Pharmacokinetic properties in mice; assay type: in vivo; settings: for F: po 20 mg/kg vs iv 5 mg/kg
HDAC2 = HDAC2 (Homo sapiens (Human), UniProt Q92769); assay: Inhibitory activity on HDAC2 (fluorescence enzyme assay); settings: read-out: IC50 HDAC2; mean of three independent experiments
Chain of HDAC2 (Q92769 whole entry, species assumed): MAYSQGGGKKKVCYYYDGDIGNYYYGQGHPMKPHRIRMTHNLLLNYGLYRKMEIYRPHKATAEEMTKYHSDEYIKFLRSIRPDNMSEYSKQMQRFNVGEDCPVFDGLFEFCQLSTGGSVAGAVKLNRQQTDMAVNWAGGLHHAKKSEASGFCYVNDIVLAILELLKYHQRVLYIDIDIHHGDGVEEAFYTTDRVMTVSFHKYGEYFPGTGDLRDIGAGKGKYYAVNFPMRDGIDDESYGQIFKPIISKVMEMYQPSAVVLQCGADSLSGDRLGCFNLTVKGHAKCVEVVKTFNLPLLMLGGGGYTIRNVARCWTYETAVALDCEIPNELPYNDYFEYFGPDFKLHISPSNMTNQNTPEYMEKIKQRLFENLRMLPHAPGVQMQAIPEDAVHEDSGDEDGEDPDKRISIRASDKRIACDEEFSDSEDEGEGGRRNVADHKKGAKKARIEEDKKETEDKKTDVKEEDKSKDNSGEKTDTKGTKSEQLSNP

[4] = test system: leukemia cell line MONO-MAC-1; assay: GI50 and LC50 by NCI method, MONO-MAC-1; assay type: cell-based; settings: 48 hours, Cell Titer-Blue
Procedure: as §1, §2, §3, §4

[5] = test system: acute myelogenous leukemia cells MV4-11; assay: GI50 and LC50 by NCI method, MV4-11; assay type: cell-based; settings: Homo sapiens, 48 hours, Cell Titer-Blue
Procedure: as §1, §2, §3, §4

leukemia cell line NB-4 = assay: GI50 and LC50 by NCI method, NB-4; assay type: cell-based; settings: 48 hours, Cell Titer-Blue; for GI50: read-out: NB4 GI50; for LC50 (median lethal concentration): read-out: NB4 LC50
Procedure: as §1, §2, §3, §4

cell death = assay: NMN reversal of cell death caused by compounds (FIG. 4); assay type: cell-based; settings: NMN is nicotinamide mononucleotide
NAMPT = NAMPT (Homo sapiens (Human), UniProt P43490); assay: Inhibitory activity on NAMPT; assay type: biochemical
Chain of NAMPT (P43490 whole entry, species assumed): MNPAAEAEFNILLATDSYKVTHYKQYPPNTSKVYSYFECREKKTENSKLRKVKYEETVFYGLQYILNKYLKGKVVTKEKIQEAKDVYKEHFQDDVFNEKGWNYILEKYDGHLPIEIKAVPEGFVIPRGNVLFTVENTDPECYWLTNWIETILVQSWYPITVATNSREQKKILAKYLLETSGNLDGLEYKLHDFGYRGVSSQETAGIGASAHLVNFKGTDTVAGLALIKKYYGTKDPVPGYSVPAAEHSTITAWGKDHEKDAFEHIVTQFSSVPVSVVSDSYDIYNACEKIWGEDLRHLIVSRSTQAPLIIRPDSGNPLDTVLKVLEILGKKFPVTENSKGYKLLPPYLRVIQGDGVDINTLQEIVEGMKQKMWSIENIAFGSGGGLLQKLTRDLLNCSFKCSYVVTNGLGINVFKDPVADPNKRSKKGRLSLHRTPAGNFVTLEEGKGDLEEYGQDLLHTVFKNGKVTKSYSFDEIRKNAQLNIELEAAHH

MV4-11 tumor = assay: In vivo anti-leukemia activity, MV4-11 tumor bearing model; settings: MV4-11 tumor bearing nude mice; 4 mg/kg/d, day 23; panobinostat intraperitoneal
[6] = po 50 mg/kg, literature (BMC 2007, 21, 184-189); cited from earlier work
[7] = HCT116 tumor bearing nude mice, LEE17 orally 8 mg/kg/d
[8] = mouse, plasma, po 20 mg/kg single dose

Chain of HDAC1 (Q13547 whole entry, species assumed): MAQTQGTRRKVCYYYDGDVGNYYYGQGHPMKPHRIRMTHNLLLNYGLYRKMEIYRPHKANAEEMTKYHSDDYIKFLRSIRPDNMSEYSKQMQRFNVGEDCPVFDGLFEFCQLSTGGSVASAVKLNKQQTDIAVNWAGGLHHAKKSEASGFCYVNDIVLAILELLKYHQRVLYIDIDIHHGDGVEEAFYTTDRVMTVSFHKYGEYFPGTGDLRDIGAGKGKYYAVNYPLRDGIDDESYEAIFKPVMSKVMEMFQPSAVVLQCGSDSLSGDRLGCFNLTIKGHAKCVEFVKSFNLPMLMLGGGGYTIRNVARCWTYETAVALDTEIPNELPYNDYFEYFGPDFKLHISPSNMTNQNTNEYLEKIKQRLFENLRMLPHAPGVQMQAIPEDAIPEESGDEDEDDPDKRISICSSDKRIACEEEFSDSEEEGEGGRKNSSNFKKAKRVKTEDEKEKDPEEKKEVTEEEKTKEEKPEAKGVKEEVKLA

CCCNNC(=O)c1ccc(CNC(=O)c2cc3ccccc3s2)cc1 [LEE17, N-(4-(2-propylhydrazino-1-carbonyl)benzyl)benzo[b]thiophene-2-carboxyamide]
IC50 (HDAC1): 3.79 nM | GI50 [1]: 25.3 nM | LC50 [1]: 7.33 µM | CC50 [2]: > 10000 nM | GI50 [2]: 58.7 nM | IC50 (HDAC3): 0.551 nM | GI50 (leukemia cell line PL21): 74.3 nM | LC50 (median lethal concentration) (leukemia cell line PL21): > 10 µM | change in the weight of the nude mice at the end of the experiment (in words) (HCT116 tumor; 8 mg/kg/d): no significant change | Relative tumor proliferation rate (T/C %) (HCT116 tumor; [7]): 14.8% | Tumor inhibitory rate (TGI %) (HCT116 tumor; [7]): 85.5% | Weight of nude mice at the end of the experiment (HCT116 tumor; [7]): 19.04 ± 1.31 g | AUC(0-t) [3, 8]: 27600 ng·h/mL | Tmax [3, 8]: 15 min | Cmax ([3]; mouse, plasma, po 20 mg/kg single dose, read-out: Cmax): 9460 ng/mL | half-life ([3]; mouse, plasma, po 20 mg/kg single dose, read-out: t½ (converted)): 268 min | F [3]: 64.6% | IC50 (HDAC2): 16.9 nM | CC50 [4]: > 10 µM | GI50 [4]: 33.2 nM | GI50 [5]: 20.3 nM | LC50 (median lethal concentration) [5]: 57.1 nM | GI50 (leukemia cell line NB-4): 51.2 nM | LC50 (median lethal concentration) (leukemia cell line NB-4): > 10000 nM

CCCNNC(=O)c1ccc(CNC(=O)/C=C/c2cccnc2)cc1 [LEE12, (E)-N-(4-(2-propylhydrazino-1-carbonyl)benzyl)-3-(pyridin-3-yl) acrylamide]
effect of NMN on cell death caused by the compound (cell death): reversal effect | IC50 (HDAC1): 25.1 nM | GI50 [1]: 13.5 nM | LC50 [1]: 0.285 µM | LC50 values in p53-null cell strain HL60 (in words) [2]: nanomolar level | CC50 [2]: 591 nM | GI50 [2]: 42.1 nM | IC50 (HDAC3): 3.12 nM | GI50 (leukemia cell line PL21): 259 nM | LC50 (median lethal concentration) (leukemia cell line PL21): 3.82 µM | IC50 (HDAC2): 141 nM | CC50 [4]: 9.03 µM | GI50 [4]: 73.7 nM | GI50 [5]: 38.3 nM | LC50 (median lethal concentration) [5]: 218 nM | inhibitory activity against NAMPT (in words) (NAMPT): micromolar level | IC50 (NAMPT; mean of three independent experiments): 6.57 µM | GI50 (leukemia cell line NB-4): 22.8 nM | LC50 (median lethal concentration) (leukemia cell line NB-4): 2300 nM

CCCNNC(=O)c1ccc(CNC(=O)c2cc3cnccc3[nH]2)cc1 [LEE18, N-(4-(2-propylhydrazin-1-carbonyl)benzyl)-1H-pyrrolo[3,2-c]pyridin-2-carboxamide]
effect of NMN on cell death caused by the compound (cell death): reversal effect | GI50 [1]: 21.4 nM | LC50 [1]: 0.503 µM | LC50 values in p53-null cell strain HL60 (in words) [2]: nanomolar level | CC50 [2]: 649 nM | GI50 [2]: 51.2 nM | IC50 (HDAC3): 0.71 nM | GI50 (leukemia cell line PL21): 110 nM | LC50 (median lethal concentration) (leukemia cell line PL21): 2.72 µM | IC50 (HDAC2): 37.8 nM | CC50 [4]: 8.68 µM | GI50 [4]: 65.7 nM | GI50 [5]: 23.6 nM | LC50 (median lethal concentration) [5]: 58.1 nM | GI50 (leukemia cell line NB-4): 16.5 nM | LC50 (median lethal concentration) (leukemia cell line NB-4): 1560 nM

CCCNNC(=O)c1ccc(CNC(=O)c2cc3ccccc3[nH]2)cc1 [LEE15, N-(4-(2-propylhydrazino-1-carbonyl)benzyl)-1H-indole-2-carboxyamide]
IC50 (HDAC1): 3.52 nM | GI50 [1]: 17.5 nM | LC50 [1]: 8.41 µM | CC50 [2]: > 10000 nM | GI50 [2]: 69.5 nM | IC50 (HDAC3): 0.383 nM | GI50 (leukemia cell line PL21): 65.5 nM | LC50 (median lethal concentration) (leukemia cell line PL21): > 10 µM | AUC(0-t) [3, 8]: 128000 ng·h/mL | Tmax [3, 8]: 15 min | Cmax ([3]; po 20 mg/kg single dose): 38800 ng/mL | t½ ([3]; po 20 mg/kg single dose): 2.58 h | F [3]: 112% | Relative tumor proliferation rate (T/C %) (MV4-11 tumor): 22.4% | Tumor inhibitory rate (TGI %) (MV4-11 tumor): 81.3% | IC50 (HDAC2): 15.1 nM | CC50 [4]: > 10 µM | GI50 [4]: 17.9 nM | GI50 [5]: 37.2 nM | LC50 (median lethal concentration) [5]: 58.1 nM | GI50 (leukemia cell line NB-4): 31.9 nM | LC50 (median lethal concentration) (leukemia cell line NB-4): > 10000 nM

Cc1[nH]c2ccccc2c1CCNCc1ccc(/C=C/C(=O)NO)cc1 [Panobinostat]
AUClast [6]: 126 ng·h/mL | Cmax [6]: 116 ng/mL | F [6]: 4.62% | t½ [6]: 2.9 h | Relative tumor proliferation rate (T/C %) (MV4-11 tumor): 72.9% | Tumor inhibitory rate (TGI %) (MV4-11 tumor): 18.3%
